Laboratory results: US20140073651A1, “BENZAMIDE DERIVATIVES AS P2X7 RECEPTOR ANTAGONISTS” (Actelion Pharmaceuticals Ltd., priority 2011, published 2014)
pIC50: −log10 of the molar value.

Target: T1, human recombinant P2X7 receptor (Homo sapiens, UniProt Q99572)
T1 construct: expressed in transfected cells
T1 sequence (Q99572 1-595): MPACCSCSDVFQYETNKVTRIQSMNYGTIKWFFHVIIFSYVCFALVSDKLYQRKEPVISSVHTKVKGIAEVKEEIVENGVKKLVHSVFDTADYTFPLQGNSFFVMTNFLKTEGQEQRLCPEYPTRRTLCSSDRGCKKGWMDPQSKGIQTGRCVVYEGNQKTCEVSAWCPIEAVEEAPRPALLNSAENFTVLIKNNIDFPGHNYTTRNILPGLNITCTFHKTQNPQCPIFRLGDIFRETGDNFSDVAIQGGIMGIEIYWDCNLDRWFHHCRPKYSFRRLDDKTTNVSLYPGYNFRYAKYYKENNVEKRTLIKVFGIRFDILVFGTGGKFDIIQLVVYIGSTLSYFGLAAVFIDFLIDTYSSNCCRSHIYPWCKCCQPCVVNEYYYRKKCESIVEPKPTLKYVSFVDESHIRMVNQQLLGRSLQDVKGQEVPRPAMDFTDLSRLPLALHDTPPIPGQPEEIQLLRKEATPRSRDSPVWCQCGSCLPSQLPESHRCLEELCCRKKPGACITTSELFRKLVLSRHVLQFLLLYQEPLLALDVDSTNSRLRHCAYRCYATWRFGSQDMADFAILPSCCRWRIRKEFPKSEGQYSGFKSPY
Assay: YO-PRO assay (YO-PRO-1 uptake) in HEK cells stably expressing P2X7
Format: cell-based
Details: HEK-293 cells expressing human recombinant P2X7 receptor; ATP 250 μM, 90 minutes; YO-PRO-1 fluorescence (FLIPR tetra); read-out: IC50 (antagonistic activity with respect to the P2X7 receptor)
Protocol: Cell line generation was performed in general according to established molecular cloning protocols. Specifically, RNA was extracted from human whole blood using the Qiagen RNeasy kit (Qiagen, CH) according to the manufacturer's instructions. Subsequently cDNA was made (Superscript II, Invitrogen AG, CH) and the human P2X7 gene (genbank ref. BC011913) was amplified with the following primers: [NT] and [NT] The amplified sequence was subsequently ligated into a pcDNA3.1 (+) NotI, NheI digested plasmid. […] Following a 24 h exposure to DNA, cells were trypsinized and re-seeded at low density in the presence of 250 μg Geneticin. Geneticin resistant cells were then selected during two consecutive rounds of cloning by serial limiting dilution with visual inspection. Individual clones were screened for P2X7 expression by applying ATP and recording the resultant uptake of YO-[…]. Specific cell clones were chosen based on RNA and protein expression. HEK cells stably expressing P2X7 were used to screen drugs using the YO-[…] assay. Cells were grown to confluency in adherent culture at 37° C. in a humidified 5% CO2 incubator (split 1/5 every 3-4 days with DMEM, 10% FCS, 1% Penicillin/Streptomycin, 250 μg/ml Geneticin). Adherent cells were detached by incubation with Trypsine (1 ml per 165 cm^2 dish) for 2 minutes, then washed off with 10 ml PBS (without Mg^2+ and Ca^2+), and resuspended in DMEM, 10% FCS, 1% Penicillin/Streptomycin, no Geneticin. 10'000 cells per well (48 hours before the assay) or 25'000 cells per well (Vi-cell XR (Beckman Coulter) (24 hours before the assay) in 50 μl full medium were seeded on 384-well black-wall, clear bottom plates, that were coated before with 10 μl per well Poly-L-Lysine, incubated for 30-60 minutes at 37° C. and washed once with PBS. Medium was removed from cells and 50 μl of assay buffer containing 0.5 μM YO-[…] was added into the wells. Solutions of antagonist compounds were prepared by serial dilutions of a 10 mM DMSO solution of the antagonist into PBS using a BioMek (Beckman Coulter). Each concentration was performed in duplicate. […] During this time period, four time points were taken. Each time point comprised the average of several measurements made within a few seconds. […] The FLIPR tetra was equipped with Molecular Devices Screen Works system control software to define and run experimental protocols. […] For IC50 measurements the maximum intensity is plotted against the concentration of compound to determine IC50 values.

| Compound | pIC50 |
| --- | --- |
| O=C(NCC1(O)CCCCC1)c1cc(Oc2cccnc2)ccc1Cl [Example 107, 2-Chloro-N-(1-hydroxy-cyclohexylmethyl)-5-(pyridin-3-yloxy)-benzamide] | 7.15 |
| CSc1nccc(Nc2ccc(Cl)c(C(=O)N[C@H](C)C3CCCCC3)c2)n1 [Example 59, 2-Chloro-N—((R)-1-cyclohexyl-ethyl)-5-(2-methylsulfanyl-pyrimidin-4-ylamino)-benzamide] | 5.74 |
| CN(C)c1cncc(N(C)c2ccc(Cl)c(C(=O)NCC3(O)CCCCC3)c2)n1 [Example 84, 2-Chloro-5-[(6-dimethylamino-pyrazin-2-yl)-methyl-amino]-N-(1-hydroxy-cyclohexylmethyl)-benzamide] | 7.19 |
| CN(c1ccc(Cl)c(C(=O)NCC2(O)CCCCCC2)c1)c1cc[nH]c(=O)n1 [Example 46, 2-Chloro-N-(1-hydroxy-cycloheptylmethyl)-5-[methyl-(2-oxo-1,2-dihydro-pyrimidin-4-yl)-amino]-benzamide] | 7.68 |
| CN(c1ccc(Cl)c(C(=O)NCC2(C(N)=O)CCCCC2)c1)c1ccnc(=O)[nH]1 [Example 54, N-(1-Carbamoyl-cyclohexylmethyl)-2-chloro-5-[methyl-(2-oxo-2,3-dihydro-pyrimidin-4-yl)-amino]-benzamide] | 6.64 |
| CC(C)N(c1ccc(Cl)c(C(=O)NCC2(O)CCCCC2)c1)c1cc[nH]c(=O)n1 [Example 25, 2-Chloro-N-(1-hydroxy-cyclohexylmethyl)-5-[isopropyl-(2-oxo-1,2-dihydro-pyrimidin-4-yl)-amino]-benzamide] | 6.96 |
| CN(C)c1nccc(Oc2ccc(Cl)c(C(=O)NCC3(O)CCCCC3)c2)n1 [Example 117, 2-Chloro-5-(2-dimethylamino-pyrimidin-4-yloxy)-N-(1-hydroxy-cyclohexylmethyl)-benzamide] | 6.37 |
| CNc1nccc(Oc2ccc(Cl)c(C(=O)NCC3(O)CCCCC3)c2)n1 [Example 116, 2-Chloro-N-(1-hydroxy-cyclohexylmethyl)-5-(2-methylamino-pyrimidin-4-yloxy)-benzamide] | 6.76 |
| O=C(NCC1(O)CCCCC1)c1cc(Nc2ccc(F)cc2F)ccc1Cl [Example 6, 2-Chloro-5-(2,4-difluoro-phenylamino)-N-(1-hydroxy-cyclohexylmethyl)-benzamide] | 6.81 |
| CN(c1ccc(Cl)c(C(=O)NCC2(O)CCCCC2)c1)c1ccc(=O)[nH]n1 [Example 90, 2-Chloro-N-(1-hydroxy-cyclohexylmethyl)-5-[methyl-(6-oxo-1,6-dihydro-pyridazin-3-yl)-amino]-benzamide] | 6.04 |
| C[C@@H](NC(=O)c1cc(N(C)c2cc[nH]c(=O)n2)ccc1Cl)C1CCCCC1 [Example 42, 2-Chloro-N—((R)-1-cyclohexyl-ethyl)-5-[methyl-(2-oxo-1,2-dihydro-pyrimidin-4-yl)-amino]-benzamide] | 7.42 |
| CN(C)c1cncc(Oc2ccc(Cl)c(C(=O)NCC3(O)CCCCC3)c2)n1 [Example 125, 2-Chloro-5-(6-dimethylamino-pyrazin-2-yloxy)-N-(1-hydroxy-cyclohexylmethyl)-benzamide] | 6.30 |
| O=C(NCC1(O)CCC(F)(F)CC1)c1cc(Oc2cc[nH]c(=O)n2)ccc1Cl [Example 118, 2-Chloro-N-(4,4-difluoro-1-hydroxy-cyclohexylmethyl)-5-(2-oxo-1,2-dihydro-pyrimidin-4-yloxy)-benzamide] | 7.85 |
| O=C(NCC1(O)CCCCC1)c1cc([S+]([O-])c2ccnc(Cl)n2)ccc1Cl (racemic) [Example 136, rac-2-Chloro-5-(2-chloro-pyrimidine-4-sulfinyl)-N-(1-hydroxy-cyclohexylmethyl)-benzamide] | 6.19 |
| CN(c1ccc(Cl)c(C(=O)NCC2(O)CCCCC2)c1)c1ccccn1 [Example 93, 2-Chloro-N-(1-hydroxy-cyclohexylmethyl)-5-(methyl-pyridin-2-yl-amino)-benzamide] | 6.95 |
| CNc1nccc(N(C)c2ccc(Cl)c(C(=O)NCC3(O)CCCCC3)c2)n1 [Example 14, 2-Chloro-N-(1-hydroxy-cyclohexylmethyl)-5-[methyl-(2-methylamino-pyrimidin-4-yl)-amino]-benzamide] | 6.90 |
| CN(c1ccc(Cl)c(C(=O)N[C@H](CO)C2CCCCC2)c1)c1cc[nH]c(=O)n1 [Example 44, 2-Chloro-N—((S)-1-cyclohexyl-2-hydroxy-ethyl)-5-[methyl-(2-oxo-1,2-dihydro-pyrimidin-4-yl)-amino]-benzamide] | 7.48 |
| CN(c1ccc(Cl)c(C(=O)NCC2(O)CCCCC2)c1)c1ccnc(Cl)n1 [Example 11, 2-Chloro-5-[(2-chloro-pyrimidin-4-yl)-methyl-amino]-N-(1-hydroxy-cyclohexylmethyl)-benzamide] | 6.74 |
| CNc1cncc(N(C)c2ccc(Cl)c(C(=O)NCC3(O)CCCCC3)c2)n1 [Example 83, 2-Chloro-N-(1-hydroxy-cyclohexylmethyl)-5-[methyl-(6-methylamino-pyrazin-2-yl)-amino]-benzamide] | 7.24 |
| O=C(NCC1(O)CCCCC1)c1cc(Oc2cccnn2)ccc1Cl [Example 130, 2-Chloro-N-(1-hydroxy-cyclohexylmethyl)-5-(pyridazin-3-yloxy)-benzamide] | 7.17 |
| O=C(NCC1(O)CCCCC1)c1cc([S+]([O-])c2ccccn2)ccc1Cl (racemic) [Example 133, rac-2-Chloro-N-(1-hydroxy-cyclohexylmethyl)-5-(pyridine-2-sulfinyl)-benzamide] | 6.58 |
| COc1nccc(N(Cc2ccccc2)c2ccc(Cl)c(C(=O)NCC3(O)CCCCC3)c2)n1 [Example 31, 5-[Benzyl-(2-methoxy-pyrimidin-4-yl)-amino]-2-chloro-N-(1-hydroxy-cyclohexylmethyl)-benzamide] | 6.25 |
| O=C(NCC1(O)CCCCC1)c1cc(Oc2cccc(Cl)n2)ccc1Cl [Example 108, 2-Chloro-5-(6-chloro-pyridin-2-yloxy)-N-(1-hydroxy-cyclohexylmethyl)-benzamide] | 7.19 |
| CSc1nccc(Nc2ccc(Cl)c(C(=O)NCC3(O)CCCCCC3)c2)n1 [Example 61, 2-Chloro-N-(1-hydroxy-cycloheptylmethyl)-5-(2-methylsulfanyl-pyrimidin-4-ylamino)-benzamide] | 6.17 |
| CN(c1ccc(Cl)c(C(=O)NCC2(O)CCCCC2)c1)c1nccnc1Cl [Example 86, 2-Chloro-5-[(3-chloro-pyrazin-2-yl)-methyl-amino]-N-(1-hydroxy-cyclohexylmethyl)-benzamide] | 7.21 |
| O=C(NCC1(O)CCCCC1)c1cc(Oc2ccncc2)ccc1Cl [Example 106, 2-Chloro-N-(1-hydroxy-cyclohexylmethyl)-5-(pyridin-4-yloxy)-benzamide] | 5.77 |
| COc1nccc(N(C)c2ccc(C)c(C(=O)NCC3(O)CCCCC3)c2)n1 [Example 154, N-(1-Hydroxy-cyclohexylmethyl)-5-[(2-methoxy-pyrimidin-4-yl)-methyl-amino]-2-methyl-benzamide] | 6.20 |
| O=C(NCC1(O)CCCCC1)c1cc(N(CC2CCCC2)c2ccnc(Cl)n2)ccc1Cl [Example 35, 2-Chloro-5-[(2-chloro-pyrimidin-4-yl)-cyclopentylmethyl-amino]-N-(1-hydroxy-cyclohexylmethyl)-benzamide] | 6.44 |
| CSc1ccnc(Nc2ccc(Cl)c(C(=O)NCC3(O)CCCCC3)c2)n1 [Example 72, 2-Chloro-N-(1-hydroxy-cyclohexylmethyl)-5-(4-methylsulfanyl-pyrimidin-2-ylamino)-benzamide] | 5.84 |
